{"source": "paper PMC6001238", "about": "“Iterative Chemical Engineering of Vancomycin Leads to Novel Vancomycin Analogs With a High in Vitro Therapeutic Index” (Frontiers in Microbiology, 2018)", "key": {"E. faecalis VSE 1": {"tested_on": "E. faecalis VSE 1", "experiment": "MIC, broth microdilution, vancomycin-sensitive E. faecalis (VSE 1)", "type": "cell-based, Enterococcus faecalis", "in_short": "(§1)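 Read-out: lowest concentration inhibiting growth in broth microdilution, CLSI method. Water and broth-only wells acted as controls; in one case 10 μM vancomycin (final) was present with the compound.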"}, "MRSA KS6": {"tested_on": "MRSA KS6", "experiment": "MIC, broth microdilution, MRSA KS6", "type": "cell-based, Staphylococcus aureus", "in_short": "as §1"}, "MRSA KS2": {"tested_on": "MRSA KS2", "experiment": "MIC, broth microdilution, MRSA KS2", "type": "cell-based, Staphylococcus aureus", "in_short": "as §1"}, "VE 149 (VanB)": {"tested_on": "VE 149 (VanB)", "experiment": "MIC, VanB-type VRE strain VE 149", "type": "cell-based, Enterococcus", "settings": "Enterococcus; VE 149, VanB; read-out: MIC", "procedure": "(§2) The minimum inhibitory concentration (MIC) was determined using the broth microdilution method according to the antimicrobial susceptibility testing standards of the clinical and laboratory standards institute ([Clinical and Laboratory Standards Institute [CLSI], 2012]). Ultrapure water and non-inoculated broth were used as controls. In one case, a final concentration of 10 μM vancomycin was included with the vancomycin analog or control antibiotic."}, "MRSA": {"tested_on": "MRSA", "experiment": "Minimum bactericidal concentration against MRSA", "type": "cell-based, Staphylococcus aureus", "procedure": "Plates were incubated overnight at 37°C and colony growth was inspected."}, "[1]": {"tested_on": "24 clinical MRSA isolates", "experiment": "MIC against a set of 24 clinical MRSA isolates (range, MIC50, TI)", "type": "cell-based, Staphylococcus aureus", "procedure": "as §2"}, "E. faecalis VRE 29": {"tested_on": "E. faecalis VRE 29", "experiment": "MIC, broth microdilution, vancomycin-resistant E. faecalis VRE 29 (VanA)", "type": "cell-based, Enterococcus faecalis", "in_short": "as §1"}, "S. aureus VRSA": {"tested_on": "S. aureus VRSA", "experiment": "MIC, broth microdilution, vancomycin-resistant S. aureus (VRSA)", "type": "cell-based, Staphylococcus aureus", "in_short": "as §1"}, "VE 150 (VanB)": {"tested_on": "VE 150 (VanB)", "experiment": "MIC, VanB-type VRE strain VE 150", "type": "cell-based, Enterococcus", "settings": "Enterococcus; VE 150, VanB; read-out: MIC", "procedure": "as §2"}, "VE 152 (VanB)": {"tested_on": "VE 152 (VanB)", "experiment": "MIC, VanB-type VRE strain VE 152", "type": "cell-based, Enterococcus", "settings": "Enterococcus; VE 152, VanB; read-out: MIC", "procedure": "as §2"}, "[2]": {"tested_on": "Murine leukemia (L1210) cells", "experiment": "Cytostatic activity, L1210 cell proliferation", "type": "cell-based", "settings": "Mus musculus, L1210, 48 h; mean ± SD of three experiments; highest concentration tested 250 µM; 2 days; read-out: Toxicity (IC50) L1210", "in_short": "(§3)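 Test compounds, serially diluted, received an equal volume of cell suspension at 300,000–500,000 cells/mL. After 37°C incubation (2 days for L1210, 3 for CEM, 4 for HeLa), cells were enumerated by Coulter counting and 50%-inhibitory concentrations calculated per cell type.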"}, "[3]": {"tested_on": "S. aureus VSSA (ATCC 6538)", "experiment": "MIC, broth microdilution, vancomycin-sensitive S. aureus (VSSA/MSSA, ATCC 6538)", "type": "cell-based, Staphylococcus aureus", "in_short": "as §1"}, "VE 157 (VanB)": {"tested_on": "VE 157 (VanB)", "experiment": "MIC, VanB-type VRE strain VE 157", "type": "cell-based, Enterococcus", "settings": "Enterococcus; VE 157, VanB; read-out: MIC", "procedure": "as §2"}, "VE 148 (VanB)": {"tested_on": "VE 148 (VanB)", "experiment": "MIC, VanB-type VRE strain VE 148", "type": "cell-based, Enterococcus", "settings": "Enterococcus; VE 148, VanB; read-out: MIC", "procedure": "as §2"}, "MRSA KS89": {"tested_on": "MRSA KS89", "experiment": "MIC, broth microdilution, MRSA KS89", "type": "cell-based, Staphylococcus aureus", "in_short": "as §1"}, "E. faecalis VRE 6": {"tested_on": "E. faecalis VRE 6", "experiment": "MIC, broth microdilution, vancomycin-resistant E. faecalis VRE 6 (VanA)", "type": "cell-based, Enterococcus faecalis", "in_short": "as §1"}, "[4]": {"tested_on": "human cervix carcinoma (HeLa) cells", "experiment": "Cytostatic activity, HeLa cell proliferation", "type": "cell-based", "settings": "Homo sapiens, HeLa, 96 h; mean ± SD of three experiments; highest concentration tested 250 µM; 4 days; read-out: Toxicity (IC50) HeLa", "in_short": "as §3"}, "E. faecalis VRE 53": {"tested_on": "E. faecalis VRE 53", "experiment": "MIC, broth microdilution, vancomycin-resistant E. faecalis VRE 53 (VanA)", "type": "cell-based, Enterococcus faecalis", "in_short": "as §1"}, "[5]": {"tested_on": "L1210, CEM and HeLa cell lines", "experiment": "Cytostatic activity, average or summary over L1210, CEM and HeLa", "type": "cell-based", "in_short": "as §3"}, "MRSA KS1": {"tested_on": "MRSA KS1", "experiment": "MIC, broth microdilution, MRSA KS1", "type": "cell-based, Staphylococcus aureus", "in_short": "as §1"}, "E. faecalis VRE 37": {"tested_on": "E. faecalis VRE 37", "experiment": "MIC, broth microdilution, vancomycin-resistant E. faecalis VRE 37 (VanA)", "type": "cell-based, Enterococcus faecalis", "in_short": "as §1"}, "33 clinical VRE isolates": {"tested_on": "33 clinical VRE isolates", "experiment": "MIC against a set of 33 clinical VRE isolates (range, MIC50, TI)", "type": "cell-based, Enterococcus faecalis", "procedure": "as §2"}, "[6]": {"tested_on": "human T-lymphocyte (CEM) cells", "experiment": "Cytostatic activity, CEM cell proliferation", "type": "cell-based", "settings": "Homo sapiens, CCRF-CEM, 72 h; mean ± SD of three experiments; highest concentration tested 250 µM; 3 days; read-out: Toxicity (IC50) CEM", "in_short": "as §3"}, "VE 82 (VanC1)": {"tested_on": "VE 82 (VanC1)", "experiment": "MIC, VanC1-type VRE strain VE 82", "type": "cell-based, Enterococcus gallinarum", "settings": "Enterococcus gallinarum; VE 82, VanC1; read-out: MIC", "procedure": "as §2"}, "S. aureus VISA/HIP5827": {"tested_on": "S. aureus VISA/HIP5827", "experiment": "MIC, broth microdilution, vancomycin-intermediate S. aureus VISA HIP5827", "type": "cell-based, Staphylococcus aureus", "in_short": "as §1"}}, "note": "Where two headings read alike, the source gives them in different places."}
{"smiles": "CN(C)c1cc(NC(=O)CNC(C)(C)C)c(O)c2c1C[C@H]1C[C@H]3[C@H](N(C)C)C(O)=C(C(N)=O)C(=O)[C@@]3(O)C(O)=C1C2=O", "note": "[Tigecycline, reference compound]", "values": [{"measurement": "MIC", "setting": "E. faecalis VSE 1; VSE1, Enterococcus faecalis VSE 1 (vancomycin-sensitive), read-out: MIC", "value": 3.13, "unit": "µM"}, {"measurement": "MIC-fold improvement vs. vancomycin", "setting": "E. faecalis VSE 1; VSE 1, ratio of MIC of vancomycin and MIC of analogue", "value": 0.5}, {"measurement": "MIC-fold improvement vs. vancomycin", "setting": "MRSA KS6; MRSA KS6, ratio of MIC of vancomycin and MIC of analogue", "value": 0.5}, {"measurement": "MIC", "setting": "MRSA KS6; Staphylococcus aureus MRSA KS6, read-out: MIC", "value": 1.56, "unit": "µM"}, {"measurement": "MIC-fold improvement vs. vancomycin", "setting": "MRSA KS2; MRSA KS2, ratio of MIC of vancomycin and MIC of analogue", "value": 0.5}, {"measurement": "MIC", "setting": "MRSA KS2; Staphylococcus aureus MRSA KS2, read-out: MIC", "value": 1.56, "unit": "µM"}, {"measurement": "MIC", "setting": "VE 149 (VanB)", "value": 1.56, "unit": "µM"}, {"measurement": "MBC relative to MIC", "setting": "MRSA", "value": "more than four times higher than the corresponding MIC"}, {"measurement": "MIC Range", "setting": "[1]; 24 clinical MRSA isolates", "value": "0.78 to 6.25", "unit": "µM"}, {"measurement": "MIC50", "setting": "[1]; Staphylococcus aureus, median MIC, 24 clinical MRSA isolates, read-out: MIC50", "value": 1.56, "unit": "µM"}, {"measurement": "TI (IC50/MIC50)", "setting": "[1]; in vitro therapeutic index, MRSA", "value": 9}, {"measurement": "MIC", "setting": "E. faecalis VRE 29; Enterococcus faecalis VRE 29 (vancomycin-resistant), read-out: MIC", "value": 3.13, "unit": "µM"}, {"measurement": "MIC-fold improvement vs. vancomycin", "setting": "E. faecalis VRE 29; VRE 29, ratio of MIC of vancomycin and MIC of analogue", "value": 128}, {"measurement": "MIC", "setting": "S. aureus VRSA; Staphylococcus aureus VRSA, read-out: MIC", "value": 3.13, "unit": "µM"}, {"measurement": "MIC-fold improvement vs. vancomycin", "setting": "S. aureus VRSA; VRSA, ratio of MIC of vancomycin and MIC of analogue", "value": 32}, {"measurement": "MIC", "setting": "VE 150 (VanB)", "value": 1.56, "unit": "µM"}, {"measurement": "MIC", "setting": "VE 152 (VanB)", "value": 1.56, "unit": "µM"}, {"measurement": "IC50", "setting": "[2]", "value": "9.4 ± 3.2", "unit": "µM"}, {"measurement": "MIC", "setting": "[3]; ATCC6538, Staphylococcus aureus VSSA, read-out: MIC", "value": 3.13, "unit": "µM"}, {"measurement": "MIC-fold improvement vs. vancomycin", "setting": "[3]; VSSA, ratio of MIC of vancomycin and MIC of analogue", "value": 0.3}, {"measurement": "MIC", "setting": "VE 157 (VanB)", "value": 1.56, "unit": "µM"}, {"measurement": "MIC", "setting": "VE 148 (VanB)", "value": 3.13, "unit": "µM"}, {"measurement": "MIC-fold improvement vs. vancomycin", "setting": "MRSA KS89; MRSA KS8 (head; KS89 in title), ratio of MIC of vancomycin and MIC of analogue", "value": 0.5}, {"measurement": "MIC", "setting": "MRSA KS89; Staphylococcus aureus MRSA KS8 (head; KS89 in title), read-out: MIC", "value": 1.56, "unit": "µM"}, {"measurement": "MIC", "setting": "E. faecalis VRE 6; Enterococcus faecalis VRE 6 (vancomycin-resistant), read-out: MIC", "value": 3.13, "unit": "µM"}, {"measurement": "MIC-fold improvement vs. vancomycin", "setting": "E. faecalis VRE 6; VRE 6, ratio of MIC of vancomycin and MIC of analogue", "value": 64}, {"measurement": "IC50", "setting": "[4]", "value": "24 ± 17", "unit": "µM"}, {"measurement": "MIC", "setting": "E. faecalis VRE 53; Enterococcus faecalis VRE 53 (vancomycin-resistant), read-out: MIC", "value": 3.13, "unit": "µM"}, {"measurement": "MIC-fold improvement vs. vancomycin", "setting": "E. faecalis VRE 53; VRE 53, ratio of MIC of vancomycin and MIC of analogue", "value": 128}, {"measurement": "IC50", "setting": "[5]; average IC50 used for TI in Table S5, >250 entered as 250, read-out: IC50", "value": 14, "unit": "µM"}, {"measurement": "IC50", "setting": "[5]; average of L1210, CEM and HeLa, read-out: Toxicity (IC50) Average", "value": 14, "unit": "µM"}, {"measurement": "MIC-fold improvement vs. vancomycin", "setting": "MRSA KS1; MRSA KS1, ratio of MIC of vancomycin and MIC of analogue", "value": 0.5}, {"measurement": "MIC", "setting": "MRSA KS1; Staphylococcus aureus MRSA KS1, read-out: MIC", "value": 1.56, "unit": "µM"}, {"measurement": "MIC", "setting": "E. faecalis VRE 37; Enterococcus faecalis VRE 37 (vancomycin-resistant), read-out: MIC", "value": 3.13, "unit": "µM"}, {"measurement": "MIC-fold improvement vs. vancomycin", "setting": "E. faecalis VRE 37; VRE 37, ratio of MIC of vancomycin and MIC of analogue", "value": 128}, {"measurement": "MIC Range", "setting": "33 clinical VRE isolates; 33 clinical VRE isolates", "value": "≤0.02 to 0.78", "unit": "µM"}, {"measurement": "MIC50", "setting": "33 clinical VRE isolates; Enterococcus, median MIC, 33 clinical VRE isolates, read-out: MIC50", "value": 0.2, "unit": "µM"}, {"measurement": "TI (IC50/MIC50)", "setting": "33 clinical VRE isolates; in vitro therapeutic index, VRE", "value": 70}, {"measurement": "IC50", "setting": "[6]", "value": "7.1 ± 2.1", "unit": "µM"}, {"measurement": "MIC", "setting": "VE 82 (VanC1)", "value": 0.78, "unit": "µM"}, {"measurement": "MIC", "setting": "S. aureus VISA/HIP5827; Staphylococcus aureus VISA/HIP5827, read-out: MIC", "value": 3.13, "unit": "µM"}, {"measurement": "MIC-fold improvement vs. vancomycin", "setting": "S. aureus VISA/HIP5827; VISA/HIP5827, ratio of MIC of vancomycin and MIC of analogue", "value": 2}]}
